According to US6403633B2, “Heteroaryl amidines, methylamidines and guanidines, and use thereof as protease inhibitors” (3-Dimensional Pharmaceuticals, Inc., priority 1998, dated 2002):
Counter-ions that a name gives are not always drawn.

Experiments:
Assay type in all cases: biochemical
[1] = target: T1, C1S (Homo sapiens, UniProt P09871); test: In vitro inhibition of purified enzymes, Ki determination: C1S; details: no enzyme-specific conditions printed
T1 sequence (P09871 16-688): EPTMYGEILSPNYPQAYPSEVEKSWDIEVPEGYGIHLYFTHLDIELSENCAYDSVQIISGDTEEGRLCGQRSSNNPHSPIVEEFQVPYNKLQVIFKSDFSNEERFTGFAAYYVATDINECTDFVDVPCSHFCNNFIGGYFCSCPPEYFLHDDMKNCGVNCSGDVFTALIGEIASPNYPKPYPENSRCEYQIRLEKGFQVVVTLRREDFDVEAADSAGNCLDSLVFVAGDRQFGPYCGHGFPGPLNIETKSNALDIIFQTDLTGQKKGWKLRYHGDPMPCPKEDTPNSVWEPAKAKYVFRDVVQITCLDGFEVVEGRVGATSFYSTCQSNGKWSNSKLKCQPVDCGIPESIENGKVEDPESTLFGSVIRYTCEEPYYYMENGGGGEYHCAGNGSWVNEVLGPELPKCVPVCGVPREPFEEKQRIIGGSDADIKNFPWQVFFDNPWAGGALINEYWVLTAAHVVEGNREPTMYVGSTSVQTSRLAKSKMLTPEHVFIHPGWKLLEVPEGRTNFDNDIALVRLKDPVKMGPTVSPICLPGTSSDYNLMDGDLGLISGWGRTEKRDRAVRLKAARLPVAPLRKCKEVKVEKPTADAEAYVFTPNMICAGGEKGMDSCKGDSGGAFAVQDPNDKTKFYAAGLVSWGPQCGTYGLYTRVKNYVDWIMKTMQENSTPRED
Excerpt: (§1) Human α-thrombin, human factor Xa and human plasmin were obtained from Enzyme Research Laboratories (South Bend, Ind.). Bovine α-chymotrypsin (Sigma C4129), bovine trypsin (Sigma T8642) and human kidney cell urokinase (Sigma U5004) were obtained from Sigma. Human leukocyte elastase was obtained from Elastin Products (Pacific, Mo.). Ki Determinations: All assays are based on the ability of the test compound to inhibit the enzyme catalyzed hydrolysis of a peptide p-nitroanilide substrate. […] The final concentrations for each of the substrates is listed below. In general, substrate concentrations are lower than the experimentally determined value for Km. […]
(§2) In a typical Ki determination, into each well of a 96 well plate is pipetted 280 μL of substrate solution, 10 μL of test compound solution, and the plate allowed to thermally equilibrate at 37° C. in a Molecular Devices plate reader for >15 minutes. Reactions were initiated by the addition of a 10 μL aliquot of enzyme and the absorbance increase at 405 nm is recorded for 15 minutes. […] The ratio of the velocity (rate of change in absorbance as a function of time) for a sample containing no test compound is divided by the velocity of a sample containing test compound, and is plotted as a function of test compound concentration. The data are fit to a linear regression, and the value of the slope of the line calculated. […]

[2] = target: tPA (Homo sapiens, UniProt P00750); test: In vitro inhibition of purified enzymes, Ki determination: tPA; details: no enzyme-specific conditions printed
Sequence of tPA (P00750 36-562, species assumed): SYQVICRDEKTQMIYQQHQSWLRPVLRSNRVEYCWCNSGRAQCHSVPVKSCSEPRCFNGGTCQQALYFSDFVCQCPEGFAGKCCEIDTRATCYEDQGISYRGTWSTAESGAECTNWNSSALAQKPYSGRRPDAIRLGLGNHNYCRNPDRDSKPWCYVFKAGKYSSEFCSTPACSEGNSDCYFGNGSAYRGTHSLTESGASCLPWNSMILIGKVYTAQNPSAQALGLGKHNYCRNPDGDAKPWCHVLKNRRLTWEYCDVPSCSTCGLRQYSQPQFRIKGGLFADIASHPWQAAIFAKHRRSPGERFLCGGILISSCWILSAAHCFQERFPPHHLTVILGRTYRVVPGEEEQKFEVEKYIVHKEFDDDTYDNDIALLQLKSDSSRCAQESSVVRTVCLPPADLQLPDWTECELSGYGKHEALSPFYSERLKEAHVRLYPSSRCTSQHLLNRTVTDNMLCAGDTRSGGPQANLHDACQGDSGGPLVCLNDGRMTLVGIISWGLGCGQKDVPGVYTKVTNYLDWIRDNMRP
Excerpt: as §1, §2

[3] = target: T2, Bovine α-chymotrypsin (Bos taurus, UniProt P00766); test: In vitro inhibition of purified enzymes, Ki determination: chymotrypsin; details: substrate N-succinyl-Ala-Ala-Pro-Phe-p-nitroanilide 14 μM, [Chymotrypsin]=2.7 nM, pH 7.5, 37° C.
T2 construct: purchased Sigma C4129
Excerpt: (§3) Reagents: All buffer salts were obtained from Sigma Chemical Company (St. Louis, Mo.), and were of the highest purity available. The enzyme substrates, N-benzoyl-Phe-Val-Arg-p-nitroanilide (Sigma B7632), N-benzoyl-Ile-Glu-Gly-Arg-p-nitroanilide hydrochloride (Sigma B2291), N-p-tosyl-Gly-Pro-Lys-p-nitroanilide (Sigma T6140), N-succinyl-Ala-Ala-Pro-Phe-p-nitroanilide (Sigma S7388) and N-CBZ-Val-Gly-Arg-p-nitroanilide (Sigma C7271) were obtained from Sigma. N-Succinyl-Ala-Ala-Pro-Arg-p-nitroanilide (BACHEM L-1720) and N-succinyl-Ala-Ala-Pro-Val-p-nitroanilide (BACHEM L-1770) were obtained from BACHEM (King of Prussia, Pa).
(§4) Human α-thrombin, human factor Xa and human plasmin were obtained from Enzyme Research Laboratories (South Bend, Ind.). […] In general, substrate concentrations are lower than the experimentally determined value for Km. […]
(§5) In a typical Ki determination, into each well of a 96 well plate is pipetted 280 μL of substrate solution, 10 μL of test compound solution, and the plate allowed to thermally equilibrate at 37° C. in a Molecular Devices plate reader for >15 minutes. Reactions were initiated by the addition of a 10 μL aliquot of enzyme and the absorbance increase at 405 nm is recorded for 15 minutes. […] The data are fit to a linear regression, and the value of the slope of the line calculated. The inverse of the slope is the experimentally determined Ki value. […]

[4] = target: T3, human plasmin (Homo sapiens, UniProt P00747); test: In vitro inhibition of purified enzymes, Ki determination: plasmin; details: substrate N-p-Tosyl-Gly-Pro-Lys-p-nitroanilide 37 μM, [Plasmin]=8 nM, pH 7.5, 37° C.
T3 construct: purchased Enzyme Research Laboratories
T3 sequence (P00747 581-810 limits assumed): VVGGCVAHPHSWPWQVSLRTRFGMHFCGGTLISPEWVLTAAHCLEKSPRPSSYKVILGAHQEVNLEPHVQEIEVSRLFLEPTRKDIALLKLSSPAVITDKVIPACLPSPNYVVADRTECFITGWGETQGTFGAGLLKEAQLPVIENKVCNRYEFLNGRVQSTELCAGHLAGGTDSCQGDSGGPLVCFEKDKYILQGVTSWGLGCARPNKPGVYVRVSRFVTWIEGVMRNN
T3 sequence (P00747 97-580 partner limits assumed): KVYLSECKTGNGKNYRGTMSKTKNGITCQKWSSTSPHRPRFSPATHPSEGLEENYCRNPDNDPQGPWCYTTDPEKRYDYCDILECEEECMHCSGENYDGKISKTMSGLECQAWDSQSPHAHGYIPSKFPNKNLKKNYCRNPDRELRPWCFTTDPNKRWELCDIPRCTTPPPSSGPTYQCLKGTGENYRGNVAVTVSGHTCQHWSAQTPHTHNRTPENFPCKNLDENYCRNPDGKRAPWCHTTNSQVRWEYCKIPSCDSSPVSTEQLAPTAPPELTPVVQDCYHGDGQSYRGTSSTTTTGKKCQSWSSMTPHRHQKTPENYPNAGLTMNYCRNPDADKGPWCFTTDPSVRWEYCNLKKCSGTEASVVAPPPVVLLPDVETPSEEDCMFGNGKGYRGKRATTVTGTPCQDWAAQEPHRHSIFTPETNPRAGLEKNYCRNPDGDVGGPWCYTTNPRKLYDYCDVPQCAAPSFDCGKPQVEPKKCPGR
Excerpt: as §3, §4, §5

[5] = target: T4, human factor Xa (Homo sapiens, UniProt P00742); test: In vitro inhibition of purified enzymes, Ki determination: Factor Xa; details: substrate N-benzoyl-Ile-Glu-Gly-Arg-p-nitroanilide hydrochloride 51 μM, [FXa]=10 nM, pH 7.5, 37° C.
T4 construct: purchased Enzyme Research Laboratories
T4 sequence (P00742 235-488 limits assumed): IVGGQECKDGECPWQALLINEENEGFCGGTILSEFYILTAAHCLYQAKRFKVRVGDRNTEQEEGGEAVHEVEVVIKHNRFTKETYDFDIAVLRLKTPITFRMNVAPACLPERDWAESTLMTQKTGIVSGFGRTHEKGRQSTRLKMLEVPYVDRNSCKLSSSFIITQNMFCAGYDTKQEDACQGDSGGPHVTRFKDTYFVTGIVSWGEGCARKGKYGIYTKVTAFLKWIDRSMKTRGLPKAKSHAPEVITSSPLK
T4 sequence (P00742 41-179 partner limits assumed): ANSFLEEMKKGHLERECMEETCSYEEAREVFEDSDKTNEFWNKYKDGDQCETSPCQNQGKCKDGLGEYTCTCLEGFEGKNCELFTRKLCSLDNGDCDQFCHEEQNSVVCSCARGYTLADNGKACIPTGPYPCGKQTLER
Excerpt: as §3, §4, §5

## 4-[Bis(phenylsulfonyl)amino]-5-methylthiophene-2-carboxamidine [Example 283]
[1]
  Ki: 0.94 µM

## CSc1sc(C(=N)N)cc1-c1nc(-c2ccc(Cl)cc2)cs1 [Example 1, 4-[4-(4-chlorophenyl)(1,3-thiazol-2-yl)]-5-methylthiothiophene-2-carboxamidine]
[2]
  Ki: 9.49 µM

## CSc1sc(C(=N)N)cc1-c1nc(-c2ccc([N+](=O)[O-])cc2)cs1 [Example 11, 5-Methylthio-4-[4-(4-nitrophenyl)(1,3-thiazol-2-yl)]thiophene-2-carboxamidine hydrochloride]
[3]
  Ki: 4.9 µM

## CSc1sc(C(=N)N)cc1-c1nc(-c2ccc3c(c2)OCCO3)cs1 [Example 12, 4-[4-(3,4-Ethylenedioxyphenyl)thiazol-2-yl]-5-methylthiothiophene-2-carboxamidine hydrochloride]
[4]
  Ki: 7.31 µM

## CSc1sc(C(N)=NC#N)cc1-c1nc(-c2ccccc2)cs1 [Example 94, 3-Amino-2-aza-3-[5-methylthio-4-(4-phenyl(1,3-thiazol-2-yl))(2-thienyl)]prop-2-enenitrile]
[5]
  Ki: 2.73 µM

## CSc1sc(C(=N)N)cc1-c1nc(-c2sc3ccccc3c2Cl)cs1 [Example 119, 4-[4-(3-chlorobenzo[b]thiophen-2-yl)(1,3-thiazol-2-yl)]-5-methylthiothiophene-2-carboxamidine hydrochloride]
[5]
  Ki: 3 µM
